What was measured:
[1] = test system: hPSC (hESC cell line H1 and NMF-iPS6); experiment: passive differentiation into three germ layers after 30 passages; assay type: cell-based, human; settings: after 30 consecutive enzymatic passages
Text: HPSC treated for 30 passages with SC332 or Y27632 were passively differentiated for 2 weeks in suspension culture, followed by 2 weeks adherent culture, fixed and stained for markers of the three germ layers. Control cells that had been mechanically passaged and unexposed to any survival compound were also differentiated and stained in the same way. PAX6 is stained in the left hand column, AFP in the centre column and SMA in the right hand column. All cells were co-stained with DAPI. Scale bar represents 100 μm.
The differentiation capacity of hPSC after treatment with SC332 was also assessed. HPSC (hESC cell line H1 and NMF-iPS6) that had been enzymatically passaged with either SC332 or Y27632 for 30 consecutive passages were passively differentiated alongside mechanically maintained cells using a mixture of embryoid body based suspension culture and adherent culture. Differentiated cells were subsequently fixed and stained for markers from each of the three germ layers. […] As expected, untreated mechanically passaged control cells, included as a positive control, were also able to differentiate into each of the three germ layers (FIG. 5).

hPSC (H1 hESC) = experiment: cytogenetic stability (karyotype) after 30 consecutive passages; assay type: cell-based, human; settings: H1 hESC treated for 30 consecutive passages
Text: In addition to this, long term exposure to compound SC332 had no detrimental effect on the karyotypic stability of hPSC (FIGS. 2 and 3).

hESC line H1 = experiment: cell survival 24 hrs post enzymatic passage; assay type: cell-based, human; settings: enzymatically passaged, 24 hrs post passage, mean ±SEM, n=3
Experimental: (§1) Enzymatic passage of hPSC methodology 1. 24 hrs prior to passage (around 70-80% confluence), supply 1 well of near confluent hPSC with 2 ml StemPro supplemented with 30 μM SC332 (done during usual daily feed). 2. At point of passage, remove media and wash cells 1× in PBS (−/−). 3. Add 1.5 ml of TrypLE Select (1×) to well and return to incubator for 2-5 mins to dissociate to single cells. 4. Add 1.5 ml of StemPro to deactivate TrypLE Select and pipette gently using a 5 ml serological pipette (to dissociate any remaining clumps). 5. Transfer cells to 15 ml conical bottomed tube and centrifuge for 3 mins at 300 g. 6. Aspirate as much supernatant as possible and resuspend cell pellet by gently flicking. 7. Resuspend cells in PBS (−/−) and centrifuge again for 3 mins at 300 g. 8. Aspirate PBS (−/−) and resuspend cells in 1 ml of StemPro. Gently pipette using serological pipette. 9. Perform a cell count and replate hPSC at a density of 5×10^5 cells per well of a pre-coated 6 well plate. Top up to 2 mls total with StemPro supplemented with 30 μM SC332. Wells are pre-coated with 0.3 mg/ml fibronectin (recombinant vitronectin fragment can also be used). 10. Return cells to incubator and supply with fresh StemPro on a daily basis. 11. 24 hrs prior to subsequent passages (around 70-80% confluence), supply 1 well of PSC with 2 ml StemPro supplemented with 30 μM SC332 (done during usual daily feed). NB SC332 can be used transiently as described above or can be added to culture medium continuously (still at 30 μM).
(§2) Human pluripotent stem cells (hPSC) were either treated with SC332, Y27632, or left untreated, before being enzymatically passaged. […] In particular, the hESC lines H1, H9 and RC9 and the hiPSC NMF-iPSC6 had cell survival of 72% (±2.9), 73% (±2.8), 69% (±1.9) and 74% (±2.6) respectively when treated with SC332. […] Data shown is the mean survival ±SEM, n=3.

hESC line RC9 = experiment: cell survival 24 hrs post enzymatic passage; assay type: cell-based, human; settings: enzymatically passaged, 24 hrs post passage, mean ±SEM, n=3
Experimental: as §1, §2

hiPSC NMF-iPSC6 = experiment: cell survival 24 hrs post enzymatic passage; assay type: cell-based, human; settings: hiPSC NMF-iPSC6, enzymatically passaged, 24 hrs post passage, mean ±SEM, n=3
Experimental: as §1, §2

hESC line H9 = experiment: cell survival 24 hrs post enzymatic passage; assay type: cell-based, human; settings: enzymatically passaged, 24 hrs post passage, mean ±SEM, n=3
Experimental: as §1, §2

[2] = test system: pMLC in iPSC (cell line NMF-iPS6); experiment: western blot of phosphorylated myosin light chain (pMLC) after dissociation; assay type: cell-based, human; settings: 15 mins post-dissociation, compared with untreated cells
Experimental: Protein samples were taken from iPSC (cell line NMF-iPS6) that were treated with SC332, Y27632 or had no treatment (control) before being dissociated. Samples were harvested 15 mins, 30 mins, 45 mins, 1 hr, 2 hr and 4 hr post dissociation. Western blot analysis was performed. […] Data shown as mean±SEM, n=3.

ROCK2 = ROCK2 (Rattus norvegicus, UniProt Q62868); experiment: radioactive filter-binding kinase assay (33P-ATP); assay type: biochemical
Sequence of ROCK2 (Q62868 2-543 limits assumed): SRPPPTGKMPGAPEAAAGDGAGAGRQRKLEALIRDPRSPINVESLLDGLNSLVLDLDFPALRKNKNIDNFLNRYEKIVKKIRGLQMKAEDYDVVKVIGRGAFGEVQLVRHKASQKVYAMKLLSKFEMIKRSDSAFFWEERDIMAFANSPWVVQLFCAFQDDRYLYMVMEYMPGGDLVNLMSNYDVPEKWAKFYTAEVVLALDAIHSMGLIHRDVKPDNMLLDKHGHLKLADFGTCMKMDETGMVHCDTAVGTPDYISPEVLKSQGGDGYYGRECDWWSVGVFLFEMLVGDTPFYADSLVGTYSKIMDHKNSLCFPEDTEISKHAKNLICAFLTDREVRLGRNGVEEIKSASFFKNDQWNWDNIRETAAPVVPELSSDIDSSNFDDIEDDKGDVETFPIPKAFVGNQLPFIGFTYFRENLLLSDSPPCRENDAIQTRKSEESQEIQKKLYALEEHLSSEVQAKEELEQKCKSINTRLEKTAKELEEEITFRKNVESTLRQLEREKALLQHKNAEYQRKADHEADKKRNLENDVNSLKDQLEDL
Experimental: (§3) This screen utilises a radioactive filter-binding assay (33P-ATP) to assess the effect of compounds on kinase activity. Results confirmed that SC332 had no inhibitory effect on ROCK2 at a concentration of 10 μM (96% activity. SC332 also had very limited effect on the closely related PRK2, showing 76% and 98% activity when used at 10 μM and 30 μM respectively (FIG. 6).

PRK2 = PRK2 (Homo sapiens, UniProt Q16513); experiment: radioactive filter-binding kinase assay (33P-ATP); assay type: biochemical
Sequence of PRK2 (Q16513 501-984 limits assumed, species assumed): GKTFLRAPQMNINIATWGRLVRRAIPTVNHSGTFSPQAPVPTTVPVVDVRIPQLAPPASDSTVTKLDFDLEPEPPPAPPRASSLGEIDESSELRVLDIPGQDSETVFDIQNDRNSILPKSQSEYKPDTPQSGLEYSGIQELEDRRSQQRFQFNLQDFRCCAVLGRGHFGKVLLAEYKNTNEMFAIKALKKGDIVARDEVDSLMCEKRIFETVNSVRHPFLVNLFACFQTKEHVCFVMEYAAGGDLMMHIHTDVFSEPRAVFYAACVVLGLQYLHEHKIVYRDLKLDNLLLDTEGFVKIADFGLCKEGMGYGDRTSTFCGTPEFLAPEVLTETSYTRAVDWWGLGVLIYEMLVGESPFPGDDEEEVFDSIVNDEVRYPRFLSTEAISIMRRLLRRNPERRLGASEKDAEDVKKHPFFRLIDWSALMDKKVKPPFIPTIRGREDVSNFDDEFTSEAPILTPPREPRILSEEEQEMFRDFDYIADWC
Experimental: as §3

Row | cytogenetic stability (karyotype) (hPSC (H1 hESC)) | ROCK2 activity (ROCK2; 10 μM) | inhibition of ROCK2 (in words) (ROCK2; 30 μM) | PRK2 activity (PRK2; 10 μM) | PRK2 activity (PRK2; 30 μM) | inhibition of PRK2 (in words) (PRK2; 30 μM) | Structure (SMILES) | differentiation towards mesoderm (SMA), endoderm (AFP) or ectoderm (PAX6) [1] | cell survival (hESC line H1) | cell survival (hESC line RC9) | cell survival (hiPSC NMF-iPSC6) | cell survival (hESC line H9) | levels of pMLC relative to α-tubulin [2]
1 | karyotypically normal (46, XY) | – | – | – | – | – | C[C@@H](N)[C@H]1CC[C@H](C(=O)Nc2ccncc2)CC1 [Y27632, reference compound] | did not block the differentiation | 72% | 71% | 74% | 73% | blocked the increase
2 | karyotypically normal (46, XY) | 96 % activity | did not inhibit | 76 % activity | 98 % activity | did not inhibit | Cc1cc(NC(=O)Cn2c(NCc3ccccc3)nc3ccccc32)no1 [SC332, 2-(2-(benzylamino)-1H-benzo[d]imidazol-1-yl)-N-(5-methylisoxazol-3-yl)acetamide] | did not block the differentiation | 72% | 69% | 74% | 73% | high levels of pMLC equivalent to those in untreated cells
